Values after ≈ are worked out from the molar mass of the structure shown.
Test system: B. casidae strain 2.2N
Assay: microbe, parasite or virus in culture
Format: cell-based, Burkholderia casidae
Details: for strain 2.2N resistant or susceptible to the antibiotic: Sceptor Pseudomonas/Resistant MIC Panel; for Minimal Inhibitory Concentration: against B. casidae strain 2.2N; for MIC: Burkholderia, 2.2N, read-out: Minimal Inhibitory Concentration

Compound | strain 2.2N resistant or susceptible to the antibiotic | Minimal Inhibitory Concentration | MIC [µg/mL]
CC(C)(O/N=C(\C(=O)N[C@@H]1C(=O)N2C(C(=O)[O-])=C(C[n+]3ccccc3)CS[C@H]12)c1csc(N)n1)C(=O)O [Ceftazimine] | susceptible | 8 micrograms/ml | –
CCN1CCN(C(=O)N[C@@H](C(=O)N[C@@H]2C(=O)N3C(C(=O)O)=C(CSc4nnnn4C)CS[C@H]23)c2ccc(O)cc2)C(=O)C1=O [Cefoperazone] | resistant | – | > 16
C[C@@H](O)[C@H]1C(=O)N2C(C(=O)O)=C(SCCN=CN)C[C@H]12 [Imipenem] | – | – | 16 (≈ 53.4 µM)
CO/N=C(\C(=O)N[C@@H]1C(=O)N2C(C(=O)O)=C(COC(C)=O)CS[C@H]12)c1csc(N)n1 [Cefotaxime] | susceptible | – | 64 (≈ 141 µM)
Trimethoprim/Sulfamethoxazole | susceptible | 4/76 | –
Gentamycin | resistant | >16 micrograms/ml | –
Tricarcillin/Clavulinic Acid | resistant | >128/2 | –
NCC[C@H](O)C(=O)N[C@@H]1C[C@H](N)[C@@H](O[C@H]2O[C@H](CN)[C@@H](O)[C@H](O)[C@H]2O)[C@H](O)[C@H]1O[C@H]1O[C@H](CO)[C@@H](O)[C@H](N)[C@H]1O [Amikacin] | resistant | – | > 64
CO/N=C(\C(=O)N[C@@H]1C(=O)N2C(C(=O)O)=CCS[C@H]12)c1csc(N)n1 [Ceftizoxime] | susceptible | – | 16 (≈ 41.7 µM)
CN(C)[C@@H]1C(O)=C(C(N)=O)C(=O)[C@@]2(O)C(O)=C3C(=O)c4c(O)cccc4[C@@](C)(O)[C@H]3C[C@@H]12 [Tetracycline] | – | – | > 8
NC[C@H]1O[C@H](O[C@H]2[C@H](O)[C@@H](O[C@H]3O[C@H](CO)[C@@H](O)[C@H](N)[C@H]3O)[C@H](N)C[C@@H]2N)[C@H](N)C[C@@H]1O [Tobramycin] | resistant | – | > 16
O=C(O)c1cn(C2CC2)c2cc(N3CCNCC3)c(F)cc2c1=O [ciprofloxacin] | susceptible | – | –
CO/N=C(\C(=O)N[C@@H]1C(=O)N2C(C(=O)O)=C(CSc3nc(=O)c(=O)[nH]n3C)CS[C@H]12)c1csc(N)n1 [Ceftriaxone] | susceptible | – | 128 (≈ 231 µM)
